Values quoted from earlier work in patent US8524198B2, “Xylitol dental maintenance system” (priority 2003, dated 2013).

Experiments:
[1] = 976 children aged 6-12 years, 2 years; for 2-year DMFS increment: partial substitution of sucrose by xylitol (X group) vs systemic fluoride (F group)
oral microorganisms = conditions: pure cultures of oral microorganisms in vitro
[2] = 3-year field study; partial substitution of sucrose by xylitol (X group)
dental plaque = dental plaque in vivo

For F [fluoride], the “ratio (RS) between caries incidence and the tooth surface population at risk” value [1] is given as 5.5 and the “2-year DMFS increment” value [1] is given as 4.8.
In the case of OC[C@@H](O)[C@H](O)[C@@H](O)CO [xylitol], the metabolized into acids (oral microorganisms) is given as “not metabolized into acids”, the “oral hygiene conditions, final vs base-line” value [2] is given as “definite improvement” and the “ratio (RS) between caries incidence and the tooth surface population at risk” value [1] is given as 4.5. For the same compound, the “2-year DMFS increment” value [1] was 3.8 and the metabolized into acids (dental plaque) was “not metabolized into acids”.
